We go through 28 molecules from patent publication US20230382924A1, “MODULATORS OF CYSTIC FIBROSIS TRANSMEMBRANE CONDUCTANCE REGULATOR” (VERTEX PHARMACEUTICALS INCORPORATED, priority 2020, published 2023).

Molecules are shown by their SMILES. Like-named read-outs stand apart in the source and are kept apart here. A value given as a limit tells only on which side of the number the result lay.

For one assay, the target named is T1, F508del (Homo sapiens, UniProt P13569, DEL508-508).
T1 construct: expressed in transfected cells
T1 sequence (P13569 with tags, fused parts or gaps DEL508-508): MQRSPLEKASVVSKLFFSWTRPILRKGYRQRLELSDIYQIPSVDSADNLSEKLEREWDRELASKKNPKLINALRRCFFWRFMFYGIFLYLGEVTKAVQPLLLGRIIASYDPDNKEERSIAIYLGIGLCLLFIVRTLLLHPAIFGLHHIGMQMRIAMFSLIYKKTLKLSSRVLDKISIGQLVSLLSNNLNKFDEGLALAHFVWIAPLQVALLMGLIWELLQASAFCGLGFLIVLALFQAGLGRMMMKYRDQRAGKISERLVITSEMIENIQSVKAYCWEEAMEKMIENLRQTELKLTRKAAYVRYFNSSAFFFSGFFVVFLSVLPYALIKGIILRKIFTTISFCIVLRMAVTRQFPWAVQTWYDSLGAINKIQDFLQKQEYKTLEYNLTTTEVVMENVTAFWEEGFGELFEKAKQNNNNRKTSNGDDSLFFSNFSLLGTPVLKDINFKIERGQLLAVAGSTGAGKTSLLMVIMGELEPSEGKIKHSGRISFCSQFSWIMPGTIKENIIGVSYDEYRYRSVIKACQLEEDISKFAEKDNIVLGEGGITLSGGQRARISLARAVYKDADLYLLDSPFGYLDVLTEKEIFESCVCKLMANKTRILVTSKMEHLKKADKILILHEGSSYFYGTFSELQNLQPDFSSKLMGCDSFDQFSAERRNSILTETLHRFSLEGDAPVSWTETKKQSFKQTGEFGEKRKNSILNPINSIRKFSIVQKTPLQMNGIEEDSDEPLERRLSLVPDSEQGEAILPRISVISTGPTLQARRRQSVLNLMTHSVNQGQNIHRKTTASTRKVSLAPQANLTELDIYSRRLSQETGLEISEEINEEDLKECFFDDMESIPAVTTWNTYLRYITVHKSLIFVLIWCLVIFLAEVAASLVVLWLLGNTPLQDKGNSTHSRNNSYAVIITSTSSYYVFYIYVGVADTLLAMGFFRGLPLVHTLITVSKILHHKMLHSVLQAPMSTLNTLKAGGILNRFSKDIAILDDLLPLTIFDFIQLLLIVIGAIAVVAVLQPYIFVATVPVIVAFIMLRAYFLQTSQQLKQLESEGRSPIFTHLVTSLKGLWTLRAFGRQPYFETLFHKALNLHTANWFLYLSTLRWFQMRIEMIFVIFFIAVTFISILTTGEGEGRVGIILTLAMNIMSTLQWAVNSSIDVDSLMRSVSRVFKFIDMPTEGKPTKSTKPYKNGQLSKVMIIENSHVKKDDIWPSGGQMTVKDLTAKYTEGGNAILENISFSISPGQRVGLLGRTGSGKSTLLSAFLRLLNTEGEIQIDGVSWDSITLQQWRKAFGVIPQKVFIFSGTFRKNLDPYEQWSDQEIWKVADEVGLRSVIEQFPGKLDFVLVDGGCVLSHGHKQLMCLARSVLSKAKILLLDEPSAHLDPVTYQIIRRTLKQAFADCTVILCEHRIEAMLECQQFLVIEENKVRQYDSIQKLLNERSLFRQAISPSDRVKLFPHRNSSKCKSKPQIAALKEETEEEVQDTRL
The assay can be described thus: 3T3 assay: membrane potential optical assay for F508del correction in NIH 3T3 cells. The note with it: for Emax: NIH3T3, read-out: 3T3 Max Activity. Format: cell-based. An excerpt: 1. Membrane Potential Optical Methods for Assaying F508del Modulation Properties of Compounds
The assay utilizes fluorescent voltage sensing dyes to measure changes in membrane potential using a fluorescent plate reader (e.g., FLIPR III, Molecular Devices, Inc.) as a readout for increase in functional F508del in NIH 3T3 cells. The driving force for the response is the creation of a chloride ion gradient in conjunction with channel activation by a single liquid addition step after the cells have previously been treated with compounds and subsequently loaded with a voltage sensing dye.
2. Identification of Corrector Compounds
To identify correctors of F508del, a single-addition HTS assay format was developed. This HTS assay utilizes fluorescent voltage sensing dyes to measure changes in membrane potential on the FLIPR III as a measurement for increase in gating (conductance) of F508del in F508del NIH 3T3 cells. The F508del NIH 3T3 cell cultures were incubated with the corrector compounds at a range of concentrations for 18-24 hours at 37° C., and subsequently loaded with a redistribution dye. The driving force for the response is a Cl^− ion gradient in conjunction with channel activation with forskolin in a single liquid addition step using a fluorescent plate reader such as FLIPR III.
Bath Solution #1: (in mM) NaCl 160, KCl 4.5, CaCl2) 2, MgCl2 1, HEPES 10, pH 7.4 with NaOH.
Chloride-free bath solution: Chloride salts in Bath Solution #1 (above) are substituted with gluconate salts.
NIH3T3 mouse fibroblasts stably expressing F508del are used for optical measurements of membrane potential. The cells are maintained at 37° C. in 5% CO2 and 90% humidity in Dulbecco's modified Eagle's medium supplemented with 2 mM glutamine, 10% fetal bovine serum, 1×NEAA, b-ME, 1×pen/strep, and 25 mM HEPES in 175 cm^2 culture flasks. For all optical assays, the cells were seeded at ˜20,000/well in 384-well matrigel-coated plates. For the correction assays, the cells are cultured at 37° C. with and without compounds for 16-24 hours.

The target in another assay is CFTR (Homo sapiens, UniProt P13569). The assay can be described thus: Membrane Potential Dye, Enteroid Assay A. Format: cell-based. Particulars: for EC50: read-out: Ent. A EC50. Summed up:
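Signal is reported as % Activity relative to a triple CFTR modulator control (3 μM + 3 μM + 300 nM acute). Read-out: membrane potential fluorescence (20 μM methyl oxonol) monitored for 15 min after chloride-free stimulation. Dye loading took 25 min at room temperature in Bath 1 buffer containing CaCC blockers.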

Where [1] appears, read: NIH 3T3 cells, F508del correction.

Sequence of CFTR (P13569 with tags, fused parts or gaps DEL508-508): as above

In the case of `Cc1cccc(C)c1-c1cc2nc(n1)NS(=O)(=O)c1cccc(c1)C(=O)NCCCO2` [Compound 204], at F508del (setting [1]), the concentration giving a half-maximal response (EC50) is 1 to 3 µM. For the same molecule, the “Ent. A Max Activity” value at CFTR (Enteroid Assay A) is “++ (++ is 30-60%)”.
As for `Cc1cccc(C)c1-c1cc2nc(n1)NS(=O)(=O)c1cccc(c1)C(=O)NCC(c1ccc(C(C)C)cc1)O2` (stereo not drawn) [Compound 272], at F508del (Table 8), the Emax is > 60% and the EC50 is < 1 µM. At CFTR (Table 8), the “Ent. A Max Activity” value is on record as “+ (+ is <30%)” and the EC50 lay in the range of 1 to 3 µM.
As to `Cc1cccc(C)c1-c1cc2nc(n1)NS(=O)(=O)c1cccc(c1)C(=O)NCC(c1ccc(C(C)C)cc1)O2` (stereo not drawn) [Compound 271], at F508del (Table 8), the “3T3 Max Activity” value was “+++ (+++ is >60%)” and the 50% effective concentration (EC50) is < 1 µM. Besides, at CFTR (Table 8), the “Ent. A Max Activity” value was “+++ (+++ is >60%)” and the EC50 was < 1 µM.
Consider `Cc1cccc(C)c1-c1cc2nc(n1)NS(=O)(=O)c1cccc(c1)C(=O)N[C@H](C1CCCCC1)CO2` [Compound 493], for which, on F508del (Table 8), the Emax was > 60% and the EC50 was < 1 µM. Also, on CFTR (Table 8), the “Ent. A Max Activity” value is on record as “+++ (+++ is >60%)” and the EC50 was < 1 µM.
As for `CC(C)C[C@@H]1COc2cc(-c3ccccc3F)nc(n2)NS(=O)(=O)c2cccc(c2)C(=O)N1` [Compound 315], on F508del (Table 8), the Emax was > 60% and the EC50 is < 1 µM. For the same molecule, on CFTR (Table 8), the “Ent. A Max Activity” value is given as “+++ (+++ is >60%)” and the EC50 is 1 to 3 µM.
The like results for `Cc1cccc(C)c1-c1cc2nc(n1)NS(=O)(=O)c1cccc(c1)C(=O)NC[C@H](c1cccc(C(C)(C)C)c1)O2` (stereo in doubt) [Compound 274] were, in that order, > 60%, < 1 µM, “+ (+ is <30%)” and 3 to 30 µM.
As for `Cc1ccc2cc1S(=O)(=O)Nc1nc(cc(-c3c(C)cccc3C)n1)OC[C@@H](CC1CCCCC1)NC2=O` [Compound 160], on F508del (setting [1]), the EC50 is < 1 µM. In addition, at CFTR (Enteroid Assay A), the “Ent. A Max Activity” value was “++ (++ is 30-60%)” and the EC50 is 1 to 3 µM.
In the case of `Cc1cccc(C)c1-c1cc2nc(n1)NS(=O)(=O)c1cccc(c1)C(=O)N[C@H](C(CC(C)C)CC(C)C)CO2` [Compound 494], at F508del (Table 8), the Emax was > 60% and the EC50 is < 1 µM. Moreover, at CFTR (Table 8), the “Ent. A Max Activity” value was “+++ (+++ is >60%)” and the EC50 was < 1 µM.
For the molecule `CC1=C(c2cc3nc(n2)NS(=O)(=O)c2cccc(c2)C(=O)N[C@H](CC(C)C)CO3)C(C)CCC1` (stereo partly drawn) [Compound 100, (11R)-6-(2,6-Dimethylcyclohex-1-en-1-yl)-11-(2-methylpropyl)-9-oxa-2λ^6-thia-3,5,12,19-tetraazatricyclo[12.3.1.14,8]nonadeca-1(17),4,6,8(19),14(18),15-hexaene-2,2,13-trione], on F508del (Table 8), the Emax is > 60% and the half-maximal effective concentration (EC50) was < 1 µM. For the same molecule, on CFTR (Table 8), the “Ent. A Max Activity” value is on record as “+++ (+++ is >60%)” and the 50% effective concentration (EC50) fell in the range of 1 to 3 µM.
Consider `Cc1cccc(C)c1-c1cc2nc(n1)NS(=O)(=O)c1cccc(c1)C(=O)N[C@H](CC1CCCCC1)[C@H](C)O2` [Compound 143], for which, on F508del (Table 8), the Emax was > 60% and the EC50 was < 1 µM. For the same molecule, on CFTR (Table 8), the “Ent. A Max Activity” value is listed as “+++ (+++ is >60%)” and the EC50 was < 1 µM.
Regarding `Cc1cccc(C)c1-c1cc2nc(n1)NS(=O)(=O)c1cccc(c1)C(=O)NC[C@@H](c1ccc(C(C)(C)C)cn1)O2` (single isomer, unassigned) [Compound 7, 10-(5-tert-Butyl-2-pyridyl)-6-(2,6-dimethylphenyl)-2,2-dioxo-9-oxa-2λ^6-thia-3,5,12,19-tetrazatricyclo[12.3.1.14,8]nonadeca-1(18),4(19),5,7,14,16-hexaen-13-one], at F508del (Table 8), the Emax was > 60% and the EC50 was < 1 µM. Further, at CFTR (Table 8), the “Ent. A Max Activity” value is listed as “+++ (+++ is >60%)” and the EC50 was < 1 µM.
Turning to `Cc1ccccc1-c1cc2nc(n1)NS(=O)(=O)c1cccc(c1)C(=O)N[C@H](CC(C)C)CO2` [Compound 329], the EC50 at F508del (setting [1]) was < 1 µM. At CFTR (Enteroid Assay A), the “Ent. A Max Activity” value was “+++ (+++ is >600%)” and the EC50 was < 1 µM.
For `Cc1cccc(C)c1-c1cc2nc(n1)NS(=O)(=O)c1cccc(c1)C(=O)NCC(c1ccc3c(c1)OCO3)O2` (stereo not drawn) [Compound 118], on F508del (Table 8), the Emax was > 60%. Moreover, the EC50 at F508del (Table 8) and on CFTR (Table 8) was < 1 µM in each case.
With `Cc1ccc2cc1C(=O)N[C@H](CC1CCCCC1)COc1cc(-c3c(C)cccc3C)nc(n1)NS2(=O)=O` [Compound 161], the half-maximal effective concentration (EC50) on F508del (setting [1]) was in the range of 3 to 30 µM.
With `Cc1cccc(C)c1-c1cc2nc(n1)NS(=O)(=O)c1cccc(c1)C(=O)NC[C@@H](C1CCCCC1)O2` [Compound 269], at F508del (Table 8), the Emax is > 60% and the EC50 was < 1 µM.
For the molecule `Cc1cccc(C)c1-c1cc2nc(n1)NS(=O)(=O)c1cccc(c1)C(=O)NCC(C)(C)CO2` [Compound 202], the EC50 at F508del (setting [1]) was < 1 µM; at CFTR (Enteroid Assay A), 3 to 30 µM. Further, the “Ent. A Max Activity” value at CFTR (Enteroid Assay A) is given as “++ (++ is 30-60%)”.
The like results for `Cc1cccc(C)c1-c1cc2nc(n1)NS(=O)(=O)c1cccc(c1)C(=O)NC(Cc1ccccc1)CO2` (stereo not drawn) [Compound 206] were, in that order, < 1 µM, < 1 µM and “+++ (+++ is >600%)”.
In the case of `Cc1cccc(C)c1-c1cc2nc(n1)NS(=O)(=O)c1cncc(c1)C(=O)N[C@H](CC1CCCCC1)CO2` [Compound 412], on F508del (Table 8), the Emax is > 60% and the EC50 is < 1 µM. Also, on CFTR (Table 8), the “Ent. A Max Activity” value was “+++ (+++ is >60%)” and the EC50 was < 1 µM.
Regarding `Cc1ccccc1-c1cc2nc(n1)NS(=O)(=O)c1cccc(c1)C(=O)N[C@H](CC(C)(C)C)CO2` [Compound 305], at F508del (Table 8), the Emax is > 60% and the EC50 was < 1 µM. Further, at CFTR (Table 8), the “Ent. A Max Activity” value was “+++ (+++ is >60%)” and the EC50 was < 1 µM.
For the molecule `COc1cccc(C)c1-c1cc2nc(n1)NS(=O)(=O)c1cccc(c1)C(=O)N[C@H](CC(C)C)CO2` [Compound 318], the EC50 on F508del (setting [1]) is < 1 µM. Moreover, at CFTR (Enteroid Assay A), the “Ent. A Max Activity” value is on record as “+++ (+++ is >600%)” and the EC50 was 1 to 3 µM.
On to `Cc1cccc(C)c1-c1cc2nc(n1)NS(=O)(=O)c1cccc(c1)C(=O)N[C@H](Cc1ccccc1)CO2` [Compound 350], for which the EC50 on F508del (setting [1]) was < 1 µM. Also, at CFTR (Enteroid Assay A), the “Ent. A Max Activity” value is on record as “+++ (+++ is >600%)” and the EC50 was < 1 µM.
Regarding `Cc1cc(C(C)(C)C)ccc1[C@@H]1CNC(=O)c2cccc(c2)S(=O)(=O)Nc2nc(cc(-c3c(C)cccc3C)n2)O1` [Compound 155], on F508del (Table 8), the Emax is > 60% and the EC50 is < 1 µM. Besides, on CFTR (Table 8), the EC50 was < 1 µM.
On to `CCCC[C@@H]1Oc2cc(-c3c(C)cccc3C)nc(n2)NS(=O)(=O)c2cccc(c2)C(=O)N[C@@H]1CC1CCCCC1` (stereo in doubt) [Compound 287], for which, at F508del (Table 8), the Emax was > 60% and the EC50 is < 1 µM. Besides, at CFTR (Table 8), the “Ent. A Max Activity” value is on record as “+++ (+++ is >60%)” and the EC50 is < 1 µM.
With `Cc1cccc(C)c1-c1cc2nc(n1)NS(=O)(=O)c1cccc(c1)C(=O)N[C@H](CC(C)C)[C@@H](C1CCCCC1)O2` [Compound 140], at F508del (Table 8), the Emax is > 60% and the EC50 was < 1 µM. Besides, on CFTR (Table 8), the “Ent. A Max Activity” value was “+++ (+++ is >60%)” and the EC50 was < 1 µM.
With `Cc1cccc(C)c1-c1cc2nc(n1)NS(=O)(=O)c1ccccc1C(=O)NCC(C1CCC(C)(C)CC1)O2` (stereo not drawn) [Compound 284], at F508del (Table 8), the Emax was > 60% and the EC50 was < 1 µM. For the same molecule, on CFTR (Table 8), the “Ent. A Max Activity” value was “+++ (+++ is >60%)” and the EC50 is < 1 µM.
Consider `Cc1cccc(C)c1-c1cc2nc(n1)NS(=O)(=O)c1cccc(c1)C(=O)NC[C@@H](Cc1ccccc1)O2` [Compound 347], for which the EC50 on F508del (setting [1]) and at CFTR (Enteroid Assay A) was < 1 µM each time. Also, the “Ent. A Max Activity” value on CFTR (Enteroid Assay A) is “+++ (+++ is >600%)”.
On to `Cc1cccc(C)c1-c1cc2nc(n1)NS(=O)(=O)c1cccc(c1)C(=O)NCC(c1ccc3c(c1)CC(C)(C)O3)O2` (stereo not drawn) [Compound 115], for which, at F508del (Table 8), the Emax was > 60% and the concentration giving a half-maximal response (EC50) was < 1 µM. Further, the EC50 on CFTR (Table 8) is 1 to 3 µM.
As for `Cc1cccc(C)c1-c1cc2nc(n1)NS(=O)(=O)c1cccc(c1)C(=O)NC1CCCC(C1)O2` (stereo not drawn) [Compound 203], the EC50 at F508del (setting [1]) is < 1 µM. Besides, the “Ent. A Max Activity” value at CFTR (Enteroid Assay A) is recorded as “++ (++ is 30-60%)”.

The term EC50 denotes the concentration giving half of the maximal effect.
